Measurements taken from patent publication US12180215B2, “Substituted pyrrolo[3,4-d]imidazoles as JAK inhibitors” (HENAN MEDINNO PHARMACEUTICAL TECHNOLOGY CO., LTD., priority 2019, dated 2024).

Tests used:
[1] = target: T1, TYK2 (Homo sapiens, UniProt P29597); experiment: TYK2 kinase ADP-Glo assay (Example 59); assay type: biochemical; settings: for IC50: TYK2 (Invitrogen) 4 nM, ATP 10 μM, IRS1 0.03 mg/mL, 25° C. 60 min, read-out: IC50 (nM), TYK2 Experiment; for Hillslope, TYK2 Experiment: slope of the nonlinear IC50 fit
T1 construct: purchased Invitrogen PV4790

[2] = target: JAK1 (Homo sapiens, UniProt P23458); experiment: JAK1 kinase ADP-Glo assay (Example 59); assay type: biochemical; parameters: purchased Invitrogen PV4774; settings: for IC50: JAK1 (Invitrogen) 4 nM, ATP 20 μM, IRS1 0.05 mg/mL, 25° C. 60 min, read-out: IC50 (nM), JAK1 Experiment; for Hillslope, JAK1 Experiment: slope of the nonlinear IC50 fit
[3] = target: JAK3 (Homo sapiens, UniProt P52333); experiment: JAK3 kinase ADP-Glo assay (Example 59); assay type: biochemical; parameters: purchased Invitrogen PV3855; settings: for IC50: JAK3 (Invitrogen) 0.5 nM, ATP 10 μM, Poly (4:1 Glu, Tyr) 0.03 mg/mL, 25° C. 60 min, read-out: IC50 (nM), JAK3 Experiment; for Hillslope, JAK3 Experiment: slope of the nonlinear IC50 fit
[4] = in vivo; cited from earlier work
[5] = target: JAK2 (Homo sapiens, UniProt O60674); experiment: JAK2 kinase ADP-Glo assay (Example 59); settings: for Hillslope, JAK2 Experiment: Example 59, slope of the nonlinear IC50 fit
[6] = system: itching caused by allergic dermatitis; settings: cited from earlier work

Sequence of JAK1 (P23458 866-1154 limits assumed): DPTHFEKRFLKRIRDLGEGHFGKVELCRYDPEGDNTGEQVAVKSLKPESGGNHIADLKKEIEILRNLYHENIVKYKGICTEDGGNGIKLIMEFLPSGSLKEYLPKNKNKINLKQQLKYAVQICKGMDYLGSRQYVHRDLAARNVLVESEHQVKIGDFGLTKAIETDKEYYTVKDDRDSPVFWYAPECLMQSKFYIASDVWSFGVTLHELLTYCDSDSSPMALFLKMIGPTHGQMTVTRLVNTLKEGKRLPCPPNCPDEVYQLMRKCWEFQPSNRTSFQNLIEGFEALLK
Sequence of JAK3 (P52333 781-1124 limits assumed): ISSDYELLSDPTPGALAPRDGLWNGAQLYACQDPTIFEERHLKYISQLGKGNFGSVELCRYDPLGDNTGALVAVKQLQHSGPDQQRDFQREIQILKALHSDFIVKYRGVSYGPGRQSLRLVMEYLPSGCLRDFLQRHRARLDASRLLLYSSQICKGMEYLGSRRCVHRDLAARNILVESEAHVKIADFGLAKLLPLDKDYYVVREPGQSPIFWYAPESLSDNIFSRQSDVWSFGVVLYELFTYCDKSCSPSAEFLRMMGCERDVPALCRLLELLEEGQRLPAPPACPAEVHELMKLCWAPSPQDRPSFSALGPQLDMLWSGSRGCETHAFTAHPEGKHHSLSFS
Sequence of JAK2 (O60674 808-1132 limits assumed): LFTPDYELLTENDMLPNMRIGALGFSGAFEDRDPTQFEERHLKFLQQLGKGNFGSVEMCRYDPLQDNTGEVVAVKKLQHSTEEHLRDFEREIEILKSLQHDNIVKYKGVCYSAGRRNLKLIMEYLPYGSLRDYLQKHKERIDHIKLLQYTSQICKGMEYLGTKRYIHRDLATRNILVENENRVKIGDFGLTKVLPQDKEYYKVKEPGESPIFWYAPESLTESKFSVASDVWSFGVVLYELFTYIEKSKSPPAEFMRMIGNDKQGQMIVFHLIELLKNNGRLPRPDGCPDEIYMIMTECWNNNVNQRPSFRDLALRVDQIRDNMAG
T1 sequence (P29597 833-1187 limits assumed): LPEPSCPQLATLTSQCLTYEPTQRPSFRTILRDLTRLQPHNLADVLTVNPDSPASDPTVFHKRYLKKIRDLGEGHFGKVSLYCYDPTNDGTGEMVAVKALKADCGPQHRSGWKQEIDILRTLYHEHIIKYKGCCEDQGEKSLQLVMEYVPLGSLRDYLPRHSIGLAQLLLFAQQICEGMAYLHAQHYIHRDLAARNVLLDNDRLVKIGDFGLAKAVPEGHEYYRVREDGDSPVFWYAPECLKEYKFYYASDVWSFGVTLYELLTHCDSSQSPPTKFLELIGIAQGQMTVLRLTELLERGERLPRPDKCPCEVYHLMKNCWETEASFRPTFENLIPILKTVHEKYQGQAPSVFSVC

For CCc1cc(O)c(F)cc1-c1ccc2c(-c3nc4c([nH]3)CN(C3CCC(O)CC3)C4)n[nH]c2c1 (stereo not drawn) [MDI-217, 5-ethyl-2-fluoro-4-(3-(5-(4-hydroxylcyclohexyl)-1,4,5,6-tetrahydropyrrolo[3,4-d]imidazol-2-yl)-1H-indazol-6-yl)phenol], the IC50 [1] was 0.391 nM, the IC50 [2] was 0.122 nM and the IC50 [3] was 0.137 nM.

For N#CC[C@H](C1CCCC1)n1cc(-c2ncnc3[nH]ccc23)cn1 [Ruxolitinib], the “incidence of the most common hematological adverse effects (low platelet counts and anemia)” value [4] is listed as > 20% and the “incidence of the most common non-hematological adverse effects (ecchymosis, dizziness and headache)” value [4] is listed as > 10%.

With CCc1cc(O)c(F)cc1-c1ccc2c(-c3nc4c([nH]3)CN(C(=O)c3cnc(N5CCCCC5)cn3)C4)n[nH]c2c1 [MDI-2, (2-(6-(2-ethyl-5-fluoro-4-hydroxyphenyl)-1H-indazol-3-yl)-4,6-dihydropyrrolo[3,4-d]imidazol-5(1H)-yl)(5-(piperidin-1-yl)pyrazin-2-yl)ketone] the IC50 [1] was 1.63 nM, the IC50 [2] was 0.806 nM and the IC50 [3] was 0.765 nM. The IC50 [5] was 0.772 nM.

For CNS(=O)(=O)C[C@H]1CC[C@H](N(C)c2ncnc3[nH]ccc23)CC1 [Olatinib], the “experimental animals (dogs) that alleviated the itching response by more than 50%” value ([6]; on the 7th day) is listed as “more than 70%” and the “time to relieve itching during the treatment” value ([6]; oral administration of 0.4-0.6 mg/kg twice a day) is listed as ≤ 24 h.

Work on CCc1cc(O)c(F)cc1-c1ccc2c(-c3nc4c([nH]3)CN(Cc3cnccn3)C4)n[nH]c2c1 [MDI-207, 5-ethyl-2-fluoro-4-(3-(5-(pyrazin-2ylmethyl)-1,4,5,6-tetrahydropyrrolo[3,4-d]imidazol-2-yl)-1H-indazol-6-yl)phenol] yielded an IC50 [1] of 0.474 nM, an IC50 [2] of 0.12 nM and an IC50 [3] of 0.132 nM. It also gave an IC50 [5] of 0.16 nM.

For CCc1cc(O)c(F)cc1-c1ccc2c(-c3nc4c([nH]3)CN(C(=O)C3CC(O)C3)C4)n[nH]c2c1 (stereo not drawn) [MDI-213, (2-(6-(2-ethyl-5-fluoro-4-hydroxyphenyl)-1H-indazol-3-yl)pyrrolo[3,4-d]imidazol-5(1H,4H,6H)-yl)(3-hydroxylcyclobutyl)ketone], the IC50 [1] was 0.146 nM, the IC50 [2] was 0.146 nM and the IC50 [3] was 0.116 nM. The IC50 [5] was 0.166 nM.

Compound CCc1cc(O)c(F)cc1-c1ccc2c(-c3nc4c([nH]3)CN(C(=O)c3cnc(N5CCN(C)CC5)cn3)C4)n[nH]c2c1 [MDI-204, (2-(6-(2-ethyl-5-fluoro-4-hydroxyphenyl)-1H-indazol-3-yl)pyrrolo[3,4-d]imidazol-5(1H,4H,6H)-yl)(5-(4-methylpiperazin-1-yl)pyrazin-2-yl)ketone] has an IC50 [1] of 0.2 nM, an IC50 [2] of 0.152 nM and an IC50 [3] of 0.238 nM. It also gave an IC50 [5] of 0.176 nM.

In the case of CCc1cc(O)c(F)cc1-c1ccc2c(-c3nc4c([nH]3)CN(C(=O)c3cnc(N5CCOCC5)cn3)C4)n[nH]c2c1 [MDI-201, (2-(6-(2-ethyl-5-fluoro-4-hydroxyphenyl)-1H-indazol-3-yl)-4,6-dihydropyrrolo[3,4-d]imidazol-5(1H)-yl)(5-morpholinepyrazin-2-yl)ketone], the IC50 [1] is reported as 0.281 nM, the “Hillslope, TYK2 Experiment” value [1] is reported as 1.411 and the IC50 [2] is reported as 0.138 nM. For the same compound, the “Hillslope, JAK1 Experiment” value [2] was 3.487, the IC50 [3] was 0.187 nM and the “Hillslope, JAK3 Experiment” value [3] was 1.989. The IC50 [5] was 0.217 nM and the “Hillslope, JAK2 Experiment” value [5] was 1.633.

For CCc1cc(O)ccc1-c1ccc2c(-c3nc4c([nH]3)CN(C(=O)c3cnc(N5CCN(C)CC5)cn3)C4)n[nH]c2c1 [MDI-205, (2-(6-(2-ethyl-4-hydroxyphenyl)-1H-indazol-3-yl)pyrrolo[3,4-d]imidazol-5(1H,4H,6H)-yl)(5-(4-methylpiperazin-1-yl)pyrazin-2-yl)ketone], the IC50 [1] was 0.194 nM, the IC50 [2] was 0.121 nM and the IC50 [3] was 0.178 nM. The IC50 [5] was 0.158 nM.

With CCc1cc(O)c(F)cc1-c1ccc2c(-c3nc4c([nH]3)CN(C(=O)C3CCN(C)CC3)C4)n[nH]c2c1 [MDI-203, (2-(6-(2-ethyl-5-fluoro-4-hydroxyphenyl)-1H-indazol-3-yl)pyrrolo[3,4-d]imidazol-5(1H, 4H,6H)-yl)(1-methylpiperidin-4-yl)ketone] the IC50 [1] was 0.328 nM, the IC50 [2] was 0.16 nM and the IC50 [3] was 0.212 nM. The IC50 [5] was 0.208 nM.

With CCc1cc(O)c(F)cc1-c1ccc2c(-c3nc4c([nH]3)CN(S(=O)(=O)c3ccccc3)C4)n[nH]c2c1 [MDI-206, 5-ethyl-2-fluoro-4-(3-(5-(benzenesulfonyl)-1,4,5,6-tetrahydropyrrolo[3,4-d]imidazol-2-yl)-1H-indazol-6-yl)phenol] the IC50 [1] was 7.23 nM, the “Hillslope, TYK2 Experiment” value [1] was 0.744 and the IC50 [2] was 0.943 nM. The “Hillslope, JAK1 Experiment” value [2] was 1.091, the IC50 [3] was 0.628 nM and the “Hillslope, JAK3 Experiment” value [3] was 1.216. For the same compound, the IC50 [5] was 0.556 nM and the “Hillslope, JAK2 Experiment” value [5] was 1.457.

For CCc1cc(O)c(F)cc1-c1ccc2c(-c3nc4c([nH]3)CN(C(=O)C3CC3)C4)n[nH]c2c1 [MDI-209, cyclopropyl (2-(6-(2-ethyl-5-fluoro-4-hydroxyphenyl)-1H-indazol-3-yl)pyrrolo[3,4-d]imidazol-5(1H, 4H,6H)-yl)ketone], the IC50 [1] was 0.281 nM, the IC50 [2] was 0.128 nM and the IC50 [3] was 0.158 nM. The IC50 [5] was 0.165 nM.

With O=C(Nc1nc2cccc(-c3ccc(CN4CCS(=O)(=O)CC4)cc3)n2n1)C1CC1 [Filgotinib, reference compound] the “Hillslope, TYK2 Experiment” value [1] was 1.037, the “Hillslope, JAK1 Experiment” value [2] was 1.067 and the “Hillslope, JAK3 Experiment” value [3] was 1.318. The “Hillslope, JAK2 Experiment” value [5] was 1.142.

In the case of CCc1cc(O)c(F)cc1-c1ccc2c(-c3nc4c([nH]3)CN(C(=O)c3cnn(C)c3)C4)n[nH]c2c1 [MDI-202, (2-(6-(2-ethyl-5-fluoro-4-hydroxyphenyl)-1H-indazol-3-yl)-4,6-dihydropyrrolo[3,4-d]imidazol-5(1H)-yl)(1-methyl-1H-pyrazol-4-yl)ketone], the IC50 [1] is reported as 0.318 nM, the IC50 [2] is reported as 0.125 nM and the IC50 [3] is reported as 0.16 nM. The IC50 [5] was 0.279 nM.

In the case of CCc1cc(O)c(F)cc1-c1ccc2c(-c3nc4c([nH]3)CN(C(=O)C3CCC3)C4)n[nH]c2c1 [MDI-211, cyclobutyl (2-(6-(2-ethyl-5-fluoro-4-hydroxyphenyl)-1H-indazol-3-yl)pyrrolo[3,4-d]imidazol-5(1H, 4H,6H)-yl)ketone], the IC50 [1] is reported as 0.266 nM, the IC50 [2] is reported as 0.162 nM and the IC50 [3] is reported as 0.16 nM. It also gave an IC50 [5] of 0.198 nM.
